From patent US10683287B2, “Heterocyclic derivatives and their use in the treatment of neurological disorders” (Novartis AG, priority 2011, dated 2020) come the findings set out here.

Counter-ions that a name gives are not always drawn.

The subject of the test is Cellular Release of Amyloid Peptide 1-40. As to the kind of experiment: Test 4: Inhibition of Cellular Release of Amyloid Peptide 1-40. The format is cell-based, Chinese hamster. The conditions noted are these: Cricetulus griseus, 24 h; read-out: Amyloid-β1-40 release IC50. The procedure:
Chinese hamster ovary cells are transfected with the human gene for amyloid precursor protein. The cells are plated at a density of 8000 cells/well into 96-well microtiter plates and cultivated for 24 hours in DMEM cell culture medium containing 10% FCS. The test compound is added to the cells at various concentrations, and the cells are cultivated for 24 hours in the presence of the test compound.
For `Cc1cc(C#N)cnc1C(=O)Nc1ccc(F)c([C@]2(C(F)F)COCC(N)=N2)n1` [Example 38, 5-Cyano-3-methyl-pyridine-2-carboxylic acid [6-((R)-5-amino-3-difluoromethyl-3,6-dihydro-2H-[1,4]oxazin-3-yl)-5-fluoro-pyridin-2-yl]-amide], the IC50 (in general, the concentration that gives 50% inhibition) came out at 5 nM.

Take `NC1=NC(CF)(c2cccc(NC(=O)c3ccc(Cl)cn3)n2)COC1` (centres unmarked) [Example 3, 5-{6-[(5-Chloro-pyridine-2-carbonyl)-amino]-pyridin-2-yl}-5-fluoromethyl-5,6-dihydro-2H-[1,4]oxazin-3-yl-ammonium Trifluoro Acetate]: the IC50 came to 140 nM. In the case of `C[C@@]1(c2nc(NC(=O)c3nc4ccn(CC(F)F)c4nc3N)ccc2F)CO[C@@](C)(C(F)(F)F)C(N)=N1` [Example 45, 3-Amino-5-(2,2-difluoro-ethyl)-5H-pyrrolo[2,3-b]pyrazine-2-carboxylic acid [6-((3R,6R)-5-amino-3,6-dimethyl-6-trifluoromethyl-3,6-dihydro-2H-[1,4]oxazin-3-yl)-5-fluoro-pyridin-2-yl]-amide], the IC50 came out at 3600 nM. In the case of `C[C@]1(c2cccc(NC(=O)c3ccc(C#N)cn3)n2)CO[C@@](C)(C(F)(F)F)C(N)=N1` [Example 9, 5-Cyano-pyridine-2-carboxylic acid [6-((3S,6R)-5-amino-3,6-dimethyl-6-trifluoromethyl-3,6-dihydro-2H-[1,4]oxazin-3-yl)-pyridin-2-yl]-amide], the IC50 came out at 1900 nM. As to `NC1=NC(CF)(c2cc(NC(=O)c3ccc(Br)cn3)cnc2Cl)COC1` (centres unmarked) [Example 18, 5-Bromo-pyridine-2-carboxylic acid [5-(5-amino-3-fluoromethyl-3,6-dihydro-2H-[1,4]oxazin-3-yl)-6-chloro-pyridin-3-yl]-amide hydrochloride], the IC50 was found to be 15 nM. For the molecule `Cc1cc(OCF)cnc1C(=O)Nc1ccc(F)c([C@]2(C)CO[C@@](C)(C(F)(F)F)C(N)=N2)n1` [Example 32, 5-Fluoromethoxy-3-methyl-pyridine-2-carboxylic acid [6-((3R,6R)-5-amino-3,6-dimethyl-6-trifluoromethyl-3,6-dihydro-2H-[1,4]oxazin-3-yl)-5-fluoro-pyridin-2-yl]amide], the IC50 is 26 nM. As to `Cc1cc(C#N)cnc1C(=O)Nc1cc([C@@]2(C)CO[C@@](C)(C(F)(F)F)C(N)=N2)c(F)cn1` [Example 17, 5-Cyano-3-methyl-pyridine-2-carboxylic acid [4-((3S,6R)-5-amino-3,6-dimethyl-6-trifluoromethyl-3,6-dihydro-2H-[1,4]oxazin-3-yl)-5-fluoro-pyridin-2-yl]-amide], the IC50 was 4800 nM. As for `NC1=NC(CF)(c2cccc(NC(=O)c3ccc(Br)cn3)n2)COC1` (centres unmarked) [Example 4, 5-Bromo-pyridine-2-carboxylic acid [6-(5-amino-3-fluoromethyl-3,6-dihydro-2H-[1,4]oxazin-3-yl)-pyridin-2-yl]-amide], the figure is 98 nM; as for `Cc1cc(C#N)cnc1C(=O)Nc1ccc(F)c([C@@]2(C)CO[C@@](C)(C(F)(F)F)C(N)=N2)n1` [Example 12, 5-Cyano-3-methyl-pyridine-2-carboxylic Acid [6-((3S,6R)-5-amino-3,6-dimethyl-6-trifluoromethyl-3,6-dihydro-2H-[1,4]oxazin-3-yl)-5-fluoro-pyridin-2-yl]-amide], 280 nM; as for `C[C@@]1(c2cccc(NC(=O)c3ncc(Br)cc3Cl)n2)CO[C@@](C)(C(F)(F)F)C(N)=N1` [Example 22, 5-Bromo-3-chloro-pyridine-2-carboxylic acid [6-((3R,6R)-5-amino-3,6-dimethyl-6-trifluoromethyl-3,6-dihydro-2H-[1,4]oxazin-3-yl)-pyridin-2-yl]-amide], 29 nM.

As for `[2H]c1nc(C(=O)Nc2cccc([C@]3(C)CO[C@@](C)(C(F)(F)F)C(N)=N3)n2)c(C([2H])([2H])[2H])c([2H])c1Cl` [Example 21, 5-Chloro-4,6-dideuterio-3-trideuteriomethyl-pyridine-2-carboxylic acid [6-((3R,6R)-5-amino-3,6-dimethyl-6-trifluoromethyl-3,6-dihydro-2H-[1,4]oxazin-3-yl)-pyridin-2-yl]-amide], the IC50 worked out at 110 nM.

With `C[C@@]1(c2cccc(NC(=O)c3ccc(Br)cn3)n2)COCC(N)=N1` [Example 1, 5-Bromo-pyridine-2-carboxylic acid [6-((R)-5-amino-3-methyl-3,6-dihydro-2H-[1,4]-oxazin-3-yl)-pyridin-2-yl]-amide], the IC50 is 41 nM. As to `Cc1cc(C#N)cnc1C(=O)Nc1cccc(C2(CF)COCC(N)=N2)n1` (centres unmarked) [Example 5, 5-Cyano-3-methyl-pyridine-2-carboxylic acid [6-(5-amino-3-fluoromethyl-3,6-dihydro-2H-[1,4]oxazin-3-yl)-pyridin-2-yl]-amide], the IC50 was found to be 40 nM. With `[2H]c1nc(C(=O)Nc2cccc(C3(CF)COCC(N)=N3)n2)c(C([2H])([2H])[2H])c([2H])c1Cl` (centres unmarked) [Example 6, 4,6-Dideutero-5-chloro-3-trideuteromethyl-pyridine-2-carboxylic acid [6-(5-amino-3-fluoromethyl-3,6-dihydro-2H-[1,4]oxazin-3-yl)-pyridin-2-yl]-amide], the IC50 is 63 nM. For `Cc1cc(C#N)cnc1C(=O)Nc1ccc(F)c([C@@]2(C(F)F)COCC(N)=N2)n1` [Example 39, 5-Cyano-3-methyl-pyridine-2-carboxylic acid [6-((S)-5-amino-3-difluoromethyl-3,6-dihydro-2H-[1,4]oxazin-3-yl)-5-fluoro-pyridin-2-yl]-amide], the IC50 came to 290 nM.

As to `C[C@@]1(c2cccc(NC(=O)c3ccc(C#N)cn3)n2)CO[C@@](C)(C(F)(F)F)C(N)=N1` [Example 10, 5-Cyano-pyridine-2-carboxylic acid [6-((3R,6R)-5-amino-3,6-dimethyl-6-trifluoromethyl-3,6-dihydro-2H-[1,4]oxazin-3-yl)-pyridin-2-yl]-amide], the IC50 turned out to be 17 nM. As for `[2H]c1nc(C(=O)Nc2cc(C3(CF)COCC(N)=N3)ccn2)c(C([2H])([2H])[2H])c([2H])c1Cl` (centres unmarked) [Example 13, 5-{2-[(5-Chloro-4,6-dideuterio-3-trideuteromethyl-pyridine-2-carbonyl)-amino]-pyridin-4-yl}-5-fluoromethyl-5,6-dihydro-2H-[1,4]oxazin-3-yl-ammonium Acetate], the figure is 550 nM; as for `Cc1cc(OC(F)F)cnc1C(=O)Nc1ccc(F)c([C@]2(C)CO[C@@](C)(C(F)(F)F)C(N)=N2)n1` [Example 29, 5-Difluoromethoxy-3-methyl-pyridine-2-carboxylic acid [6-((3R,6R)-5-amino-3,6-dimethyl-6-trifluoromethyl-3,6-dihydro-2H-[1,4]oxazin-3-yl)-5-fluoro-pyridin-2-yl]amide], 24 nM. Consider `C[C@@]1(c2cc(NC(=O)c3ncc(C#N)cc3Cl)ncc2F)CO[C@@](C)(C(F)(F)F)C(N)=N1` [Example 35, 3-Chloro-5-cyano-pyridine-2-carboxylic acid [4-((3R,6R)-5-amino-3,6-dimethyl-6-trifluoromethyl-3,6-dihydro-2H-[1,4]oxazin-3-yl)-5-fluoro-pyridin-2-yl]-amide], for which the IC50 is 140 nM. With `Cc1cnc(C(=O)Nc2ccc(F)c([C@]3(C)CO[C@@](C)(C(F)(F)F)C(N)=N3)n2)cn1` [Example 33, 5-Methyl-pyrazine-2-carboxylic acid [6-((3R,6R)-5-amino-3,6-dimethyl-6-trifluoromethyl-3,6-dihydro-2H-[1,4]oxazin-3-yl)-5-fluoro-pyridin-2-yl]amide], the IC50 is 130 nM. As for `COCCn1ccc2nc(C(=O)Nc3ccc(F)c([C@]4(C)CO[C@@](C)(C(F)(F)F)C(N)=N4)n3)c(N)nc21` [Example 43, 3-Amino-5-(2-methoxy-ethyl)-5H-pyrrolo[2,3-b]pyrazine-2-carboxylic acid [6-((3R,6R)-5-amino-3,6-dimethyl-6-trifluoromethyl-3,6-dihydro-2H-[1,4]oxazin-3-yl)-5-fluoro-pyridin-2-yl]amide], the figure is 370 nM. For the molecule `COc1cnc(C(=O)Nc2ccc(F)c([C@]3(C)CO[C@@](C)(C(F)(F)F)C(N)=N3)n2)c(C)c1` [Example 25, 5-Methoxy-3-methyl-pyridine-2-carboxylic acid [6-((3R,6R)-5-amino-3,6-dimethyl-6-trifluoromethyl-3,6-dihydro-2H-[1,4]oxazin-3-yl)-5-fluoro-pyridin-2-yl]amide], the IC50 was determined as 76 nM. `Cc1cc(C#N)cnc1C(=O)Nc1cc([C@]2(C)COC(CF)(CF)C(N)=N2)c(F)cn1` [Example 37, 5-Cyano-3-methyl-pyridine-2-carboxylic acid [4-((R)-5-amino-6,6-bis-fluoromethyl-3-methyl-3,6-dihydro-2H-[1,4]oxazin-3-yl)-5-fluoro-pyridin-2-yl]-amide]: the IC50 came to 83 nM. For `Cc1cc(C#N)cnc1C(=O)Nc1cccc([C@]2(C)CO[C@@](C)(C(F)(F)F)C(N)=N2)n1` [Example 8, 5-Cyano-3-methyl-pyridine-2-carboxylic Acid [6-((3R,6R)-5-amino-3,6-dimethyl-6-trifluoro-methyl-3,6-dihydro-2H-[1,4]oxazin-3-yl)-pyridin-2-yl]-amide], the IC50 was found to be 6 nM.

As to `Cc1cnc(C(=O)Nc2ccc(F)c([C@]3(C)CO[C@@](C)(C(F)(F)F)C(N)=N3)n2)c(C)n1` [Example 41, 3,5-Dimethyl-pyrazine-2-carboxylic acid [6-((3R,6R)-5-amino-3,6-dimethyl-6-trifluoromethyl-3,6-dihydro-2H-[1,4]oxazin-3-yl)-5-fluoro-pyridin-2-yl]amide], the IC50 was 161 nM.

Take `C[C@@]1(c2nc(NC(=O)c3ncc(OCCCF)nc3N)ccc2F)CO[C@@](C)(C(F)(F)F)C(N)=N1` [Example 42, 3-Amino-5-(3-fluoro-propoxy)-pyrazine-2-carboxylic acid [6-((3R,6R)-5-amino-3,6-dimethyl-6-trifluoromethyl-3,6-dihydro-2H-[1,4]oxazin-3-yl)-5-fluoro-pyridin-2-yl]amide]: the half-inhibitory concentration (IC50) is 72 nM.
